This is an account of results in ChEMBL document CHEMBL1136184, “Identification of a novel class of orally active pyrimido[5,4-3][1,2,4]triazine-5,7-diamine-based hypoglycemic agents with protein tyrosine phosphatase inhibitory activity” (Bioorg Med Chem Lett, 2003).

Structures are written as SMILES. Values joined by “and” are separate entries in the source; they are usually repeats but may differ in a detail not shown here. Identical values can stand only once.

One may read the IC50 as the concentration needed to halve the response being measured. For orientation: Cmax means the peak of the concentration-time curve. What is called clearance is the volume of plasma or blood freed of the substance per unit of time. The low end stands for a low capacity for elimination, the high end for a high capacity for elimination. By bioavailability is commonly meant dose-corrected exposure relative to a reference, in per cent. Low values mean poor availability, high ones good availability. As a reminder, the half-life is the time in which the quantity being followed falls by half. A higher half-life goes with slow decline.

Data set [1] deals with T1, Tyrosine-protein phosphatase non-receptor type 1 (Homo sapiens, UniProt P18031).
T1 sequence (P18031 whole entry): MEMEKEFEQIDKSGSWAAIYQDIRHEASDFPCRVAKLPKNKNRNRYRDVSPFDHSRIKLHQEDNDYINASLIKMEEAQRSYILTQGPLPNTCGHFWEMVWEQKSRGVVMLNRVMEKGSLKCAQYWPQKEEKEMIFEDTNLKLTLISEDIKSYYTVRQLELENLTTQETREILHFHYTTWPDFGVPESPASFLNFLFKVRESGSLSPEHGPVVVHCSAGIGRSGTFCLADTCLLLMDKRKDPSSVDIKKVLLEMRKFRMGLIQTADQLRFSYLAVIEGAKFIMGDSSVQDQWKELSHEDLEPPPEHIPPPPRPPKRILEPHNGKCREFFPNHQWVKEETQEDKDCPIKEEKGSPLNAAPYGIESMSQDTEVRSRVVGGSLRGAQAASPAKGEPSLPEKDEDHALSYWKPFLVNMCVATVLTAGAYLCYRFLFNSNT
Briefly: Inhibition of Protein-tyrosine phosphatase 1B in 2 mM DTT.

For data set [2], the target named is T1, Tyrosine-protein phosphatase non-receptor type 1. Briefly: Inhibition of Protein-tyrosine phosphatase 1B in 300 nM DTT.
Data set [3] is described as follows: Cmax value was determined. Format: ADME, organism-based. The settings on record: mouse, in vivo.
Data set [4] is described as follows: Plasma clearance in mice. The format is ADME, organism-based. The settings on record: mouse.
Data set [5] can be described thus: Oral availability at 50 mg/kg po in male mice. The format is ADME, organism-based. On the set-up: dose 50 mg/kg, route oral. The conditions noted are these: mouse, in vivo.
A short description of data set [6]: Half life in mice. The conditions noted are these: mouse, in vivo. The format is ADME, organism-based.
Data set [7] deals with Receptor-type tyrosine-protein phosphatase F (Homo sapiens, UniProt P10586). Put plainly: In vitro inhibitory concentration required against Leukocyte antigen related receptor phosphatase (LAR) in the presence of 300 nM DTT.
The test system of another data set is Mus musculus. Briefly: Percent change in blood glucose in male ob/ob mice dosed at 5 mg/kg orally evaluated 2 hr postdose on day 5. The format is functional. The settings on record: route oral.
For data set [8], the target named is Receptor-type tyrosine-protein phosphatase alpha (Homo sapiens, UniProt P18433). Put plainly: In vitro inhibitory concentration required against Protein-tyrosine phosphatase alpha in the presence of 300 nM DTT.
The target of data set [9] is T2, Tyrosine-protein phosphatase non-receptor type 11 (Homo sapiens, UniProt Q06124).
T2 sequence (Q06124 whole entry): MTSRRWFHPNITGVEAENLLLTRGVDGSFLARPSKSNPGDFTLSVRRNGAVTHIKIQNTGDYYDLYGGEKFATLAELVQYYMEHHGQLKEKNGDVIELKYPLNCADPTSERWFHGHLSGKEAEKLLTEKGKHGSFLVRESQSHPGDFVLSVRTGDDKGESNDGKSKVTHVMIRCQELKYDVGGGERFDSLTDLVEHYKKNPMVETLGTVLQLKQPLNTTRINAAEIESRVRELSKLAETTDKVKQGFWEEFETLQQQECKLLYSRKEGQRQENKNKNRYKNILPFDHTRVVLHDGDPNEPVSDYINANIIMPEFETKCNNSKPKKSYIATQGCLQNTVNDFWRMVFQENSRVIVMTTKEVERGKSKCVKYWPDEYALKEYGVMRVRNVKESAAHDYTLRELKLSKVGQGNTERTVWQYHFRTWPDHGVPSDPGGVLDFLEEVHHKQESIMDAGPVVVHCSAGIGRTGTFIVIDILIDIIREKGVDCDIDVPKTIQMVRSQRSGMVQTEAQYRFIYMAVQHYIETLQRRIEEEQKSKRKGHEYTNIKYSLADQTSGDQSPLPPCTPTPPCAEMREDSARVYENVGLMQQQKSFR
Briefly: In vitro inhibitory concentration required against Tyrosine phosphatase SHP-2 in the presence of 300 nM DTT.

A short description of data set [10]: Steady state volume of distribution was determined in mice. Format: ADME, organism-based. The settings on record: mouse, in vivo; read-out: Vss.

Chain of Receptor-type tyrosine-protein phosphatase alpha (P18433 whole entry): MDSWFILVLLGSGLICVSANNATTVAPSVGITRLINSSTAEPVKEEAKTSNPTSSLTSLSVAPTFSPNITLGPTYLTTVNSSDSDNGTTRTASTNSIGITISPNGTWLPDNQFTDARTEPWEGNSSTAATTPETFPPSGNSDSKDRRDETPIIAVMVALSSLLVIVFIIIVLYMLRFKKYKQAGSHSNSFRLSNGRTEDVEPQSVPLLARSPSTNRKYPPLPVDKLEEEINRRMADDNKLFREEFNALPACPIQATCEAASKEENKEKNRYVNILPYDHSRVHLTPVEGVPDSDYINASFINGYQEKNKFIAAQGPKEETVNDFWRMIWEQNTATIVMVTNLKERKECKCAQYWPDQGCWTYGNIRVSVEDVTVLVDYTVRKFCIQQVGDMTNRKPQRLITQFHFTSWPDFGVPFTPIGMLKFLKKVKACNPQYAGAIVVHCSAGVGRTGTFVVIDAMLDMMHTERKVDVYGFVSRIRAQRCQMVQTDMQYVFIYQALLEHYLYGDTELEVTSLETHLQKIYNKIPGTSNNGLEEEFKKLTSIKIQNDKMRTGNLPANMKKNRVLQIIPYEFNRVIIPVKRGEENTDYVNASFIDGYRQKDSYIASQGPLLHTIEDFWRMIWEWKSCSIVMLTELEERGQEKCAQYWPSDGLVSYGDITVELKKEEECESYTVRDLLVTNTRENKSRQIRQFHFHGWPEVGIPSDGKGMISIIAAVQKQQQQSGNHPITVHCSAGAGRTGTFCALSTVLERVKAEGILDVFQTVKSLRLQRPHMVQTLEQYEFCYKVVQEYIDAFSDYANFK
Chain of Receptor-type tyrosine-protein phosphatase F (P10586 whole entry): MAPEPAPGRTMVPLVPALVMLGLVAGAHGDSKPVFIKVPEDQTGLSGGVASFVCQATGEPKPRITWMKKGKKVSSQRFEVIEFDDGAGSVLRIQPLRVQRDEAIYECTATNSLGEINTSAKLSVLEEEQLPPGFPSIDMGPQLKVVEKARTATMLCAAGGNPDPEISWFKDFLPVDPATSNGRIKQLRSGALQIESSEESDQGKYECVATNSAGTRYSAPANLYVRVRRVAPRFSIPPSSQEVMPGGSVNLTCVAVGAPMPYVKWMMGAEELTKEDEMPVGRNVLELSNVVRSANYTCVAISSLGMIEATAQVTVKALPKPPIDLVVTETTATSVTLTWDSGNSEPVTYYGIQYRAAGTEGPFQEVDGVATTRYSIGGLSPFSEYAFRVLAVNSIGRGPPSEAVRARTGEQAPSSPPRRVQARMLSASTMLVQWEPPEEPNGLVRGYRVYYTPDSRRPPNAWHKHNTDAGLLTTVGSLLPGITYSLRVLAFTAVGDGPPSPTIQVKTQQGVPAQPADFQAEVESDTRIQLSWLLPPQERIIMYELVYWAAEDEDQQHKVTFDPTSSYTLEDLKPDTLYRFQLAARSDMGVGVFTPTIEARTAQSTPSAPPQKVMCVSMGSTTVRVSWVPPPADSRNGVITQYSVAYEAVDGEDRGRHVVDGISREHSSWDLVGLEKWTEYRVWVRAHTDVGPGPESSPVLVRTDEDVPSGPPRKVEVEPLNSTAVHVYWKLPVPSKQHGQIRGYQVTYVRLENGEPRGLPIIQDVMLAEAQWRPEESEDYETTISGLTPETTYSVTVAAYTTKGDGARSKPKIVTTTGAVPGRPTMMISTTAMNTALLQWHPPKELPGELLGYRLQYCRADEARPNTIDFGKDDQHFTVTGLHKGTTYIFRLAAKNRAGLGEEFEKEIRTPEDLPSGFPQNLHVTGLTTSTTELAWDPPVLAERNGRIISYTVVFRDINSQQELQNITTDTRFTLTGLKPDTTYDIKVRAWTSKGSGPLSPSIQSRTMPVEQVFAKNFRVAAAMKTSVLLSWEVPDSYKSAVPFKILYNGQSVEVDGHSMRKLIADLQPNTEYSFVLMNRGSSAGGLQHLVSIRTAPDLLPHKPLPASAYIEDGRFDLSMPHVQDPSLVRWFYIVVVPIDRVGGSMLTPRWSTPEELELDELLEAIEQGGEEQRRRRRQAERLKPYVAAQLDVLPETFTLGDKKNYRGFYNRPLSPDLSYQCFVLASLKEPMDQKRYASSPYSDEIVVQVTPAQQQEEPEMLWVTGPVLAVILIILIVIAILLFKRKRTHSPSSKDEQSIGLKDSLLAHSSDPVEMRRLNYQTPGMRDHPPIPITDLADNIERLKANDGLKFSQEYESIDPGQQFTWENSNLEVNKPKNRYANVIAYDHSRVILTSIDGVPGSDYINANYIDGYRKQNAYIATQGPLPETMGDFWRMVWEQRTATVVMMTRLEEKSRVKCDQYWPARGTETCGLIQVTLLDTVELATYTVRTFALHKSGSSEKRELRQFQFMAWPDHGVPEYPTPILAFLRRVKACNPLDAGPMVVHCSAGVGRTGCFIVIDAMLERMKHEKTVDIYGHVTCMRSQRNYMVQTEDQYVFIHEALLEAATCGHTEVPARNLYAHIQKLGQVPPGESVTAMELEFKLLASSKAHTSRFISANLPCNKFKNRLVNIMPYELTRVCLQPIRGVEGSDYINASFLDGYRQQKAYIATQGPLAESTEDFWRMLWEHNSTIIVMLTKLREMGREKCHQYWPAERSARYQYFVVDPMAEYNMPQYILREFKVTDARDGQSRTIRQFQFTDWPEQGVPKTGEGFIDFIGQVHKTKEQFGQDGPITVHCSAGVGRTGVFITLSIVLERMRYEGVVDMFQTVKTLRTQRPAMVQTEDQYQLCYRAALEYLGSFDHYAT

As to `Nc1nc(N)c2nc(CN3CCN(c4ccccc4)CC3)nnc2n1`, the IC50 in data set [1] and in data set [2] was over 100 µM in each case.
Regarding `Nc1nc(N)c2nc(CN3CCN(Cc4cccc5ccccc45)CC3)nnc2n1`, the IC50 in data set [1] amounted to 40 µM; in data set [2] it was 4.5 µM.
The like results for `Nc1nc(N)c2nc(CN3CCN(Cc4ccc5ccccc5c4)CC3)nnc2n1` were, in that order, 33 µM and 3.5 µM.
Take `Nc1nc(N)c2nc(CN3CCN(Cc4ccc(-c5ccccc5)cc4)CC3)nnc2n1`: in data set [3], the peak level (Cmax) was 4 µM. The compound further gave a clearance in data set [4] of 104 mL/min/kg. Further, the bioavailability in data set [5] amounted to 97%. This compound also showed a half-life in [6] of 1 h. The IC50 in [7] was 16 µM; in [8], 15 µM; in data set [1] it was 18 µM; in [2], 2.9 µM and 8 µM; in data set [9] it was 5 µM. Besides, the “Change in blood glucose” value in the data set on Mus musculus is -19%. Besides, the Vd in data set [10] was 3.1 L/kg.
`CCN(CC)Cc1nnc2nc(N)nc(N)c2n1`: the IC50 in data set [7] is 28 µM; in data set [8] it was 28 µM; in data set [1], over 100 µM; in data set [2] it was 29 µM and 12 µM; in data set [9], 14 µM.
As to `Nc1nc(N)c2nc(CN3CCNCC3)nnc2n1`, the IC50 in [1] was 91 µM; in data set [2], 29 µM.
For the compound `Nc1nc(N)c2nc(CN3CCN(Cc4ccccc4)CC3)nnc2n1`, the IC50 was 12 µM in [7]; 24 µM in [8]; 98 µM in [1]; 6.2 µM and 8 µM in [2]; 9 µM in data set [9]. In addition, the “Change in blood glucose” value in the data set with Mus musculus was -23%.
Take `Nc1nc(N)c2nc(CN(CCO)CCO)nnc2n1`: the IC50 in data set [1] was over 100 µM; in data set [2], 97 µM.
The like results for `CN1CCN(Cc2nnc3nc(N)nc(N)c3n2)CC1` were, in that order, 87 µM and 21 µM.
For `Nc1nc(N)c2nc(CN3CCCCC3)nnc2n1`, the IC50 in data set [1] is over 100 µM; in data set [2], 24 µM.
In the case of `Nc1nc(N)c2nc(CN3CCOCC3)nnc2n1`, the IC50 in [1] was over 100 µM; in data set [2], 24 µM.
